For eleven compounds, TGI and GI50 results are on record in PubChem BioAssay (NCI).

“And” between values parts separate entries of the source, which are not always exact repeats. Identical values can stand only once.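 Cells were grown in 96-well plates and exposed to each compound for 48 hours at five concentrations; endpoints were interpolated linearly between bracketing concentrations, or set to the highest concentration if not reached. At the GI50, growth is halved. The concentration for full growth arrest is given as TGI.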 Where only a bound is given, the exact number is not on record here.

Common to all, as to test: NCI anticancer screen, dose series, 48 h
Test [1] has as its system COLO 205 colon.
The subject of test [2] is ACHN renal.
Test [3] has as its system SF-295 CNS.
In test [4] the test system is HCC-2998 colon.
The subject of test [5] is K-562 leukemia.
Test [6] has as its system SK-MEL-5 melanoma.
The subject of test [7] is 786-0 renal.
For test [8], the system named is M14 melanoma.
Test [9] concerns SNB-75 CNS.
In test [10] the test system is A498 renal.
Test [11] deals with NCI/ADR-RES ovarian.
For test [12], the system named is MALME-3M melanoma.
Test [13] deals with A549 NSCLC.

As to `CC[C@@]1(O)C(=O)OCc2c1cc1n(c2=O)Cc2c-1nc1ccccc1c2C=Nc1ccc(N[C@@H]2c3cc4c(cc3[C@@H](c3cc(OC)c(O)c(OC)c3)[C@H]3C(=O)OC[C@@H]32)OCO4)cc1`, the TGI in test [1] is > 100 µM and 35.8 µM; in test [2], 0.0374 µM; in [3], 8.02 µM and 15.9 µM; in test [5], 19.3 µM and 10.3 µM; in [6], 0.309 µM and 0.366 µM; in test [7], 0.329 µM. The TGI was 0.742 µM and 0.253 µM in test [8]; 1.72 µM and 0.261 µM in [10]; 15.6 µM and 1.84 µM in test [13]. In addition, the GI50 in [3] is 0.0619 µM and 0.0503 µM; in test [4], 0.369 µM and 0.131 µM; in test [6], 0.0255 µM; in [9] it was 0.0498 µM and < 0.0169 µM; in [10] it was 0.21 µM and 0.0448 µM; in test [11], 0.0449 µM and < 0.01 µM. Also, the GI50 in test [12] is 0.676 µM and 0.155 µM.

`Cc1cccc(/C=N/NC(=S)NC2CCCCC2)n1`: the TGI in [1] was more than 100 µM; in [2], more than 85.2 µM; in [3], more than 100 µM; in test [4], more than 89.5 µM; in test [5], more than 54.7 µM; in test [6], more than 100 µM. The TGI in test [7] was 98.3 µM; in test [8], 61.6 µM; in test [9] it was more than 100 µM; in test [10] it was more than 71.4 µM; in [11] it was more than 67.1 µM; in test [12], more than 86.4 µM. Also, the TGI in test [13] was more than 88.9 µM.

As for `COc1ccc(-c2cc(-c3ccccc3)c3c(n2)-c2ccccc2NC(=O)C3)cc1`, the TGI in test [1] was more than 100 µM; in test [2], more than 100 µM; in test [3], more than 100 µM; in [4], more than 100 µM; in test [5] it was 8.64 µM; in test [6], more than 100 µM. Also, the TGI is more than 100 µM in [7]; more than 100 µM in test [8]; 37.8 µM in test [9]; more than 100 µM in test [10]; more than 100 µM in [11]; 94.1 µM in [12]. The TGI in test [13] is more than 100 µM.

In the case of `CCOC(=O)NC(Nc1cccc(F)c1)(C(F)(F)F)C(F)(F)F`, the TGI in [1], in test [2], in test [3], in [4], in [5] and in [6] was more than 100 µM in each case. The TGI in test [7], in test [8], in [9], in test [10], in test [11] and in test [12] was more than 100 µM each time. For the same compound, the TGI in test [13] was more than 100 µM.

In the case of `CC1(C)C2CC1C(/C=N\OCC(=O)O)=CC2=O` (stereo unspecified), the TGI in [1], in test [2], in [3], in test [4], in test [5] and in [6] was more than 100 µM in each case. For the same compound, the TGI in test [7] was more than 100 µM; in test [8] it was more than 100 µM; in test [9] it was 97.9 µM; in test [10], more than 100 µM; in test [11], more than 100 µM; in test [12], more than 100 µM. Further, the TGI in test [13] is more than 100 µM.

Regarding `Clc1ccccc1-c1nn2c(CCCCCCCCc3nnc4sc(-c5ccccc5Cl)nn34)nnc2s1`, the TGI in test [1], in [2], in test [3], in [4], in [5] and in test [6] was more than 100 µM in each case. Further, the TGI in [7], in test [8], in [9], in [10], in [11] and in test [12] was more than 100 µM each time. Moreover, the TGI in test [13] is more than 100 µM.

In the case of `Nc1c(O)c2c(c(O)c1Cl)C(=O)C=CC2=O`, the TGI in [1] was 3.32 µM; in test [2] it was 18.8 µM; in test [3], 6.94 µM; in test [4], 11.9 µM; in test [5], more than 60.6 µM; in test [6], 2.04 µM. Further, the TGI in test [7] was 25.5 µM; in test [8], 6.08 µM; in [9], 12.6 µM; in test [10] it was 27.3 µM; in test [11], more than 32.6 µM; in [12], 0.894 µM. The compound further yielded a TGI in [13] of 5.68 µM.

Take `COC(=O)C1=C(O)C(C(=O)OC)[C@]2(O)[C@H](C(=O)OC)[C@H]1C[C@@H](c1ccc(O)cc1)[C@H]2C(=O)OC` (stereo partly specified): the TGI in test [1] is more than 100 µM; in test [2], more than 100 µM; in test [3] it was 58.8 µM; in test [4], 46.5 µM; in test [5] it was more than 100 µM; in test [6] it was more than 100 µM. In addition, the TGI was more than 100 µM in [7]; more than 100 µM in [8]; 81.5 µM in test [9]; more than 100 µM in test [10]; more than 100 µM in test [11]; more than 100 µM in test [12]. Further, the TGI in test [13] is more than 100 µM.

Turning to `COC(=O)CC(SCCO)SCCO`, the TGI in [1], in test [2], in [3], in test [4], in test [5] and in [6] was more than 100 µM in each case. Also, the TGI in test [7], in test [8], in test [9], in test [10], in [11] and in test [12] was more than 100 µM throughout. The compound also registered a TGI in [13] of more than 100 µM.

Take `COC(=O)C1=C(O)C(C(=O)OC)[C@]2(O)[C@H](C(=O)OC)[C@H]1C[C@@H](c1ccc(Cl)cc1Cl)[C@H]2C(=O)OC` (stereo partly specified): the TGI came to 20.9 µM in [1]; 42.4 µM in test [2]; 31.6 µM in test [3]; 21.9 µM in test [4]; 14 µM in test [5]; 16.8 µM in test [6]. The TGI is more than 100 µM in test [7]; 19.1 µM in [8]; 37.2 µM in test [9]; 30.4 µM in [10]; 38.2 µM in test [11]; 20.6 µM in [12]. Also, the TGI in [13] worked out at 24.5 µM.

As to `CC(C)(C)c1cc(C(C)(C)C)c(P=C(Cl)Cl)c(C(C)(C)C)c1` (stereo unspecified), the TGI in [1], in [2], in [3], in test [4], in test [5] and in test [6] was more than 100 µM in each case. For the same compound, the TGI in test [7], in [8], in [9], in test [10], in test [11] and in [12] was more than 100 µM each time. This compound also registered a TGI in test [13] of more than 100 µM.
